Literature values as cited in patent US20030232367A1, “Differentially expressed genes involved in angiogenesis, the proteins encoded thereby, and methods of using the same” (priority 2002, published 2003).

System: vascular endothelial cell proliferation
Settings: endothelial vs tumor cell proliferation (Ingber et al. 1990)

For `CO[C@@H]1[C@H](OC(=O)NC(=O)CCl)CC[C@]2(CO2)[C@H]1[C@@]1(C)O[C@@H]1CC=C(C)C` [AGM-1470], the “half-maximal inhibition of vascular endothelial cell proliferation at lower concentration than tumor cell proliferation” value is given as 4 logs.
